# Source: patent US20050272766A1, “1-Glyoxylamide indolizines for treating lung and ovarian cancer” (Synta Pharmaceuticals Corp., priority 2004, published 2005)
# Marks after values point to notes of the source that are not given here.
# Assays:
# [1] = test system: BG-1-TR1 human ovarian cancer; test: Antitumor efficacy against BG-1-TR1 human ovarian cancer implanted subcutaneously in nude mice
# Description: (§1) Compound (1) was suspended in 1% methylcellulose solution (Wako, Osaka, 400 c.p., and distilled water) and was stored at 4° C.
# (§2) Female mice, 8 weeks old (strain BALB/c-nu/nu, CLEA Japan Inc., Tokyo) were obtained and adapted for 5 days at experimental conditions and used at 10 weeks old. Experimental conditions included temperature of 21-27° C.; relative humidity of 40-70%; ventilation>10 times/hour; fluorescent light for 12-hour light (8:00-20:00)/12-hour dark; ad libitium access to food (irradiated CA-1, CLEA Japan Inc., Tokyo) and water (Osaka city tap water).
# (§3) Statistical analyses versus control group and between selected groups were performed using a spreadsheet program to run Welch's test and Dunnett's multiple comparison test.
# (§4) Tumor size and body weight were scored at least twice a week throughout the experiment. Tumor size was captured utilizing CD-10C compatible electric calipers (Mitsutoyo Corp., Kawasaki) and animal weight was automatically captured from the balance (A/D, Tokyo). The tumor volume was calculated by the following formula: [Tumor volume=(Length×Width×Width)/2]. The relative tumor volume (RV) was calculated as RV=Vn/Vo, where Vn: tumor volume on day n, and Vo: initial tumor volume. Judgment was performed one day (Examples 6 and 9) or three days (Examples 7 and 8) after the last dosing.
# (§5) Animal experiments were performed using Tumor Measuring & Tracking System (VISIONS Co. Ltd., Tokyo). An experiment consisted of 8 mice per group (Examples 6 and 9) or 6 mice per group (Examples 7 and 8). Tumor samples were implanted subcutaneously into the back of mice (day 0). Tumor-implanted animals were randomized to groups based upon tumor volume and body weight when tumor volume reached approximately 100-200 mm^3. The control group was given vehicle (1% methylcellulose solution). The doses were calculated on the basis of up-to-date body weights of the mice (0.1 mL/10 g body weight). The mice were non-fasted during an entire course of the experiment.
# The tumor sample implanted included BG-1-TR1 cells (3×10^6/0.1 ml of 5 mg/ml matrigel solution, BD Biosciences, Bedford, Mass.). Implanted animals were randomized at 20 days. Compound (1) was orally administered daily for 14 days from day 20 to 33.
# [2] = test system: RERF-LC-AI carcinoma; test: Antitumor efficacy against RERF-LC-AI human lung cancer fragment implanted subcutaneously in nude mice; conditions: for % inhibition: day 26
# Description: as §1, §2, §3
# Tumor size and body weight were scored at least twice a week throughout the experiment. Tumor size was captured utilizing CD-10C compatible electric calipers (Mitsutoyo Corp., Kawasaki) and animal weight was automatically captured from the balance (A/D, Tokyo). The tumor volume was calculated by the following formula: [Tumor volume=(Length×Width×Width)/2]. The relative tumor volume (RV) was calculated as RV=Vn/Vo, where Vn: tumor volume on day n, and Vo: initial tumor volume.
# Animal experiments were performed using Tumor Measuring & Tracking System (VISIONS Co. Ltd., Tokyo). […] Tumor samples were implanted subcutaneously into the back of mice (day 0). Tumor-implanted animals were randomized to groups based upon tumor volume and body weight when tumor volume reached approximately 100-200 mm^3. The control group was given vehicle (1% methylcellulose solution). The doses were calculated on the basis of up-to-date body weights of the mice (0.1 mL/10 g body weight). The mice were non-fasted during an entire course of the experiment.
# The tumor sample implanted was a fragment of RERF-LC-AI carcinoma. Implanted animals were randomized at 10 days. Compound (1) was orally administered daily for 14 days.
# [3] = test system: Ma44 human lung squamous cell carcinoma; test: Antitumor efficacy against Ma44 human lung squamous cell carcinoma implanted subcutaneously in nude mice; conditions: for RV on day 27 (Mean +/- SD), relative tumor volume: nude mice; for % inhibition: day 27; for growth inhibition (% inhibition): p<0.01
# Description: (§6) Compound (1) was suspended in 1% methylcellulose solution (Wako, Osaka, 400 c.p., and distilled water) and was stored at 4° C. Paclitaxel (Sigma St. Louis, Mo.) was dissolved in dimethylsulfoxide (DMSO, Nakarai-Tesk, Tokyo) and stored at 4° C., and was prepared in a solution of 10% DMSO, 18% Cremophore RH-40 (Nikko Chemicals) and 72% distilled water before use.
# as §2, §3, §4, §5
# (§7) Ma44 human lung squamous cell carcinoma was maintained by in vitro passage with using Eagle's Minimum Essential Medium (Nissui Pharmaceutical Co., Tokyo) supplemented with 10% fetal calf serum (Life Technologies Inc, MD). Ma44 cells (5×10^5/0.1 mL) were implanted and the animals were randomized at 11 days. Compound (1) was orally administered daily for 14 days. Paclitaxel solution (DMSO/Cremophore/distilled water) was prepared as above and administered intravenously 6 times (3 times per week×2).
# [4] = test system: RERF-LC-AI/TXL carcinoma; test: Antitumor efficacy against RERF-LC-AI/TXL human lung cancer fragment implanted subcutaneously in nude mice; conditions: for % inhibition: day 24
# Description: as §6, §2, §3, §4, §5
# (§8) The tumor sample implanted was a fragment of RERF-LC-AI/TXL carcinoma. Implanted animals were randomized at 11 days. Compound (1) was orally administered daily for 14 days. Paclitaxel solution (DMSO/Cremophore/distilled water) was prepared as above. and administered intravenously 6 times (3 times per week×2, day 11, 13, 15, 18, 20 and 22).
# [5] = Body weight of treated mice (summary statement, Examples 1-4); format: in vivo
# Description: as §4
# [6] = test system: Ma44 human lung squamous cell carcinoma; conditions: in vivo
# Description: as §6, §2, §3, §4, §5, §7
# [7] = test system: RERF-LC-AI/TXL carcinoma; conditions: in vivo
# Description: as §6, §2, §3, §4, §5, §8
# [8] = 20 mg/kg x 6, intravenous, day 10, 12, 14, 17, 19 and 21
# [9] = 20 mg/kg, maximum tolerated dose for nude mice in this schedule
# [10] = 50 mg/kg x 14, oral daily, 5 surviving mice
# [11] = 25 mg/kg x 14, oral daily, day 11-24
smiles,measurement,setting,value
"CC(=O)O[C@H]1C(=O)[C@@]2(C)[C@H]([C@H](OC(=O)c3ccccc3)[C@]3(O)C[C@H](OC(=O)[C@H](O)[C@@H](NC(=O)c4ccccc4)c4ccccc4)C(C)=C1C3(C)C)[C@]1(OC(C)=O)CO[C@@H]1C[C@@H]2O [Paclitaxel, reference compound]",% inhibition,"[1]; 20 mg/kg x 6, intravenous",8.3%
same,"RV (Mean +/- SD), relative tumor volume on day 34","[1]; 20 mg/kg x 6, intravenous, day 20, 22, 24, 27, 29, 31, nude mice",2.0 ± 0.7
same,"MBWL, maximum body weight loss (% of initial)","[1]; 20 mg/kg x 6, intravenous, maximum on d27",4.5% (d27)
same,antitumor activity,"[1]; 20 mg/kg, maximum tolerated dose for nude mice in this schedule, BG-1 cells",neither significant nor effective
same,"MBWL, maximum body weight loss (% of initial)","[2]; 20 mg/kg x 6, intravenous",7%
same,"RV on day 26 (Mean +/- SD), relative tumor volume",[2]; [8],3.1 ± 0.8**^e)
same,% inhibition,"[2]; 20 mg/kg x 6, intravenous",92.2%
same,"MBWL, maximum body weight loss (% of initial)","[3]; 20 mg/kg x 6, intravenous",3%
same,"RV on day 27 (Mean +/- SD), relative tumor volume","[3]; 20 mg/kg x 6, intravenous, day 11, 13, 15, 18, 20 and 22",2.8 ± 0.4^**e)
same,% inhibition,"[3]; 20 mg/kg x 6, intravenous",81.8%
same,antitumor activity,[3]; [9],neither significant nor effective
same,"MBWL, maximum body weight loss (% of initial)","[4]; 10 mg/kg x 6, intravenous",0%
same,"RV on day 24 (Mean +/- SD), relative tumor volume","[4]; 10 mg/kg x 6, intravenous, day 10, 12, 14, 17, 19 and 21",31.23 ± 6.69
same,% inhibition,"[4]; 10 mg/kg x 6, intravenous",24.8%
same,"MBWL, maximum body weight loss (% of initial)","[4]; 20 mg/kg x 6, intravenous",0%
same,"RV on day 24 (Mean +/- SD), relative tumor volume",[4]; [8],32.87 ± 10.03
same,% inhibition,"[4]; 20 mg/kg x 6, intravenous",20.9%
same,growth inhibition,[4]; [9],81.8%
"Cc1cc(NC(=O)C(=O)c2cc(Cc3ccc(C#N)cc3)n3ccccc23)sn1 [Compound (1), 2-(3-(4-cyanobenzyl)indolizin-1-yl)-N-(3-methylisothiazol-5-yl)-2-oxoacetamide]",change in body weight,[5],Minimal change in body weight
same,mice found dead,[6],one of eight mice
same,mice found dead,[7],All mice
same,% inhibition,"[1]; 12.5 mg/kg x 14, oral daily",27.4%
same,"MBWL, maximum body weight loss (% of initial)","[1]; 12.5 mg/kg x 14, oral daily",0%
same,"RV (Mean +/- SD), relative tumor volume on day 34","[1]; 12.5 mg/kg x 14, oral daily, from day 20 to 33",1.6 ± 0.7
same,body weight losses,[1]; 25 mg/kg and 50 mg/kg daily oral dosing groups,mild
same,% inhibition,"[1]; 25 mg/kg x 14, oral daily",27.5%
same,"RV (Mean +/- SD), relative tumor volume on day 34","[1]; 25 mg/kg x 14, oral daily, from day 20 to 33",1.6 ± 0.5
same,"MBWL, maximum body weight loss (% of initial)","[1]; 25 mg/kg x 14, oral daily, maximum on d24",1.9% (d24)
same,"RV (Mean +/- SD), relative tumor volume on day 34","[1]; 50 mg/kg x 14, oral daily, from day 20 to 33",0.9 ± 0.3
same,"MBWL, maximum body weight loss (% of initial)","[1]; 50 mg/kg x 14, oral daily, maximum on d34",8.7% (d34)
same,percent inhibition of cancer cells,"[1]; oral administration, BG1-TR1, summary",up to 61%
same,"MBWL, maximum body weight loss (% of initial)","[2]; 25 mg/kg x 14, oral daily",4%
same,"RV on day 26 (Mean +/- SD), relative tumor volume","[2]; 25 mg/kg x 14, oral daily, day 10-23, nude mice",14.1 ± 73
same,% inhibition,"[2]; 25 mg/kg x 14, oral daily",64.9%
same,Toxic death,"[2]; 50 mg/kg x 14, oral daily, 1 of 6 mice, on day 21",one of six mice
same,"MBWL, maximum body weight loss (% of initial)",[2]; [10],14%
same,"RV on day 26 (Mean +/- SD), relative tumor volume",[2]; [10],8.2 ± 1.9
same,% inhibition,"[2]; 50 mg/kg x 14, oral daily",79.7%
same,Toxic death,"[2]; 75 mg/kg x 14, oral daily, 6 mice, on day 17-20",All mice
same,percent inhibition of cancer cells,"[2]; oral administration, RERF-LC-AI, summary",≤ 80%
same,"MBWL, maximum body weight loss (% of initial)","[3]; 25 mg/kg x 14, oral daily",3%
same,% inhibition,[3]; [11],35.2%
same,"RV on day 27 (Mean +/- SD), relative tumor volume",[3]; [11],10.0 ± 1.4
same,body weight losses,[3]; 50 mg/kg daily oral dosing,mild
same,growth inhibition (% inhibition),[3]; 50 mg/kg daily oral dosing,63.9%
same,"MBWL, maximum body weight loss (% of initial)","[3]; 50 mg/kg x 14, oral daily",5%
same,% inhibition,"[3]; 50 mg/kg x 14, oral daily",68.8%
same,"RV on day 27 (Mean +/- SD), relative tumor volume","[3]; 50 mg/kg x 14, oral daily",4.8 ± 1.7
same,growth inhibition (% inhibition),"[3]; lower dose, daily oral",36.2%
same,percent inhibition of cancer cells,"[3]; oral administration, Ma44, summary",≤ 64%
same,"MBWL, maximum body weight loss (% of initial)","[4]; 25 mg/kg x 14, oral daily",1%
same,"RV on day 24 (Mean +/- SD), relative tumor volume","[4]; 25 mg/kg x 14, oral daily, from day 10 to 23, nude mice",26.49 ± 13.41
same,% inhibition,"[4]; 25 mg/kg x 14, oral daily",36.2%
same,growth inhibition,"[4]; 50 mg/kg daily oral dosing, evaluation day 27",68.8%
same,"MBWL, maximum body weight loss (% of initial)","[4]; 50 mg/kg x 14, oral daily",3%
same,Toxic death,"[4]; 50 mg/kg x 14, oral daily, 1 mouse, on day 16",Toxic
same,"RV on day 24 (Mean +/- SD), relative tumor volume","[4]; 50 mg/kg x 14, oral daily, 7 surviving mice",15.01 ± 6.45
same,% inhibition,"[4]; 50 mg/kg x 14, oral daily",63.9%
same,percent inhibition of cancer cells,"[4]; oral administration, RERF/TXL, summary",≤ 67%
